Where two headings read alike, the source gives them in different places.
Columns and labels:
recombinant GSK3β kinase = recombinant GSK3β kinase (Homo sapiens (Human), UniProt P49841); experiment: GSK3β kinase assay (Ser/Thr 09 peptide Z-lyte, FRET); format: biochemical; settings: GSK3β kinase, 46 μM ATP, one hour; method calls values IC50
IL-6 = IL-6 inhibition in LPS-stimulated human peripheral blood mononuclear cells (HTRF); format: cell-based; settings: for EC50: huPBMCs, LPS 50 ng/mL, 22 hours, IL-6 HTRF; for inhibition at 10 µM: read-out: percent inhibition at 10 μM
In short: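 Fresh human PBMCs at 1×10e6 cells/mL in 1% FBS-RPMI were pretreated with compound for 2 h, then stimulated with 50 ng/mL E. coli 0111:B4 LPS for a further 22 h at 37 °C. IL-6 was measured by HTRF (665/620 nm ratio). Values were normalized to DMSO and fitted 4-parameter for EC50.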

[1] = tested on: primary human fibroblasts derived from IPF patients (LL29 cells), α-smooth muscle actin; experiment: Inhibition of fibrotic process: αSMA in TGF-β1 treated LL29 fibroblasts; format: cell-based; settings: for EC50: LL29 cells, TGF-β1 20 ng/mL, 4 days, % cells positive for αSMA; for inhibition at 10 µM: read-out: percent inhibition at 10 μM
In short: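 LL29 fibroblasts from IPF patients, in F12 medium with 1% FBS, treated with TGF-β1 plus compound; TGF-β1 with DMSO as positive control, DMSO alone as negative control. After 4 days' incubation, SYTOX green nucleic acid stain added at 1 μM final, 30 min at room temperature.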

[2] = target: recombinant DYRK1A kinase (Homo sapiens (Human), UniProt Q13627); experiment: DYRK1A kinase assay (Ser/Thr 18 peptide Z-lyte, FRET); settings: DYRK1A kinase, 30 μM ATP, one hour; method calls values IC50
Procedure: Each compound was dissolved in DMSO as a 10 mM stock and used to prepare compound source plates.
This is a non-radioactive assay using fluorescence resonance energy transfer (FRET) between coumarin and fluorescein to detect kinase activity which is represented as a ratio of coumarin emission/fluorescein emission.
The mixture was allowed to incubate with the representative compounds for one hour at room temperature. All reactions were performed in duplicate. Unphosphorylated (“0% Control”) and phosphorylated (“100% control”) forms of Ser/Thr 18 served as control reactions. Additionally, an 11-point dose-response curve of Staurosporine (1 uM top) was run to serve as a positive compound control.
After incubation, Development Reagent A was diluted in Development Buffer then added to the reaction and allowed to further incubate for one hour at room temperature.
Dose-response curves were generated and inhibitory concentration (IC50) values were calculated using non-linear regression curve fit in the Dotmatics' Studies Software (Bishops Stortford, UK).

[3] = tested on: Wnt-responsive promoter (Sp5-Luc reporter) in SW480 colon carcinoma cells; experiment: Sp5-Luc reporter gene screening assay for Wnt activity in SW480 cells; format: cell-based, human; settings: 36 to 48 hours, luminescence
In short: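 SW480 cells stably carrying a luciferase reporter under an Sp5 promoter with eight TCF/LEF sites, plated at 4,000 cells/well in DMEM with 1% FBS and incubated 36 to 48 hours at 37° C. Luminescence normalized to DMSO-only cells; EC50 fitted by four-parameter nonlinear regression.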

[4] = tested on: SW480 colon carcinoma cells; experiment: Cell viability assay (CellTiter-Glo) in SW480 cells; format: cell-based, human; settings: four days
[5] = tested on: Tau phosphorylation at Ser396 (pSer396); experiment: Tau phosphorylation (pSer396) assay in SH-SY5Y cells; format: cell-based, human
Procedure: Two days before treatment, cells were seeded onto 96 well plates at 5×10^4 cells/well.
The above synthesized compounds were screened using the cell assay procedure to assess decrease Tau phosphorylation at Ser396 (pSer396) described below.
Cells were lysed with RIPA buffer complemented with phosphatase and protease inhibitors then lysates were spun down at 12,000 g for 10 min to remove any cellular debris.

recombinant GSK3β kinase, sequence (P49841 whole entry): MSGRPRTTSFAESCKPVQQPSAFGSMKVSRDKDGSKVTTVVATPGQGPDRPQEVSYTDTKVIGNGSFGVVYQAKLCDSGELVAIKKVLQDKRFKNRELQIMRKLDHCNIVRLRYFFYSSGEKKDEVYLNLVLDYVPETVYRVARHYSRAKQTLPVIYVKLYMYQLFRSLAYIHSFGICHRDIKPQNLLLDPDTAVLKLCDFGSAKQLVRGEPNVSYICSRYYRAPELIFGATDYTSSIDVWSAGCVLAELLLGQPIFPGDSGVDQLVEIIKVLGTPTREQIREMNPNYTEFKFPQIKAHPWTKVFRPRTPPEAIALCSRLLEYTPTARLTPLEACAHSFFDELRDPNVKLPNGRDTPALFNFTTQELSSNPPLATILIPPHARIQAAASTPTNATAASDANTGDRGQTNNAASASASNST

Row | Compound | EC50 (recombinant GSK3β kinase) [nM] | EC50 (IL-6; Homo sapiens, PBMC) [nM] | inhibition at 10 µM (IL-6; Homo sapiens, PBMC) [%] | EC50 ([1]; Homo sapiens, Fibroblast, 96 h) [nM] | inhibition at 10 µM ([1]; Homo sapiens, Fibroblast) [%] | EC50 [2] [nM] | EC50 ([3]; Homo sapiens) [nM] | EC50 ([4]; Homo sapiens, 96 h) [nM] | EC50 ([5]; Homo sapiens, SH-SY5Y) [nM] | EC50 ([5]; SH-SY5Y cells, overnight (16-18 h), pSer396 Tau ELISA, read-out: EC50) [nM] | EC50 (IL-6) [nM] | EC50 [1] [nM] | EC50 [3] [nM] | EC50 [4] [nM]
1 | Cc1ncc(C(=O)Nc2cc3cc(-c4cncn4C)ccc3cn2)n1C [Compound 51, 1,2-Dimethyl-N-(6-(1-methyl-1H-imidazol-5-yl)isoquinolin-3-yl)-1H-imidazole-5-carboxamide] | 641 | > 10000 | 10.9 | > 10000 | 6.5 | 4 | 466 | 844 |  |  |  |  |  | 
2 | Cn1cnc(C(=O)Nc2cc3cc(-c4cncn4C)ccc3cn2)n1 [Compound 52, 1-Methyl-N-(6-(1-methyl-1H-imidazol-5-yl)isoquinolin-3-yl)-1H-1,2,4-triazole-3-carboxamide] | 5030 | > 10000 | 1.1 | > 10000 | 33.8 | 9 | 2180 | 3610 |  |  |  |  |  | 
3 | Cc1nc(C(=O)Nc2cc3cc(-c4cncn4C)ccc3cn2)co1 [Compound 53, 2-Methyl-N-(6-(1-methyl-1H-imidazol-5-yl)isoquinolin-3-yl)oxazole-4-carboxamide] | 821 | > 10000 | 47.5 | 2420 |  | 14 | 1890 | 3200 |  |  |  |  |  | 
4 | CC(C)c1nc(C(=O)Nc2cc3cc(-c4cncn4C)ccc3cn2)co1 [Compound 54, 2-Isopropyl-N-(6-(1-methyl-1H-imidazol-5-yl)isoquinolin-3-yl)oxazole-4-carboxamide] | 1920 | 6510 |  | 3210 |  | 18 | 2130 | 3730 |  |  |  |  |  | 
5 | Cc1coc(C(=O)Nc2cc3cc(-c4cncn4C)ccc3cn2)n1 [Compound 55, 4-Methyl-N-(6-(1-methyl-1H-imidazol-5-yl)isoquinolin-3-yl)oxazole-2-carboxamide] | 986 | 9480 |  | 3810 |  | 7 | 1120 | 3070 |  |  |  |  |  | 
6 | Cc1csc(C(=O)Nc2cc3cc(-c4cncn4C)ccc3cn2)n1 [Compound 56, 4-Methyl-N-(6-(1-methyl-1H-imidazol-5-yl)isoquinolin-3-yl)thiazole-2-carboxamide] | 9990 | 8920 |  | 3190 |  | 5 | 2310 | 3070 |  |  |  |  |  | 
7 | Cc1nc(C(=O)Nc2cc3cc(-c4cncn4C)ccc3cn2)cs1 [Compound 57, 2-Methyl-N-(6-(1-methyl-1H-imidazol-5-yl)isoquinolin-3-yl)thiazole-4-carboxamide] | 1610 | > 10000 | 19.6 | 2830 |  | 6 | 2550 | 1810 |  |  |  |  |  | 
8 | Cc1nnc(C(=O)Nc2cc3cc(-c4cncn4C)ccc3cn2)o1 [Compound 58, 5-Methyl-N-(6-(1-methyl-1H-imidazol-5-yl)isoquinolin-3-yl)-1,3,4-oxadiazole-2-carboxamide] | 4340 | > 10000 | 9.5 | 1280 |  | 9 | 1310 | 2960 |  |  |  |  |  | 
9 | Cc1nnc(C(=O)Nc2cc3cc(-c4cncn4C)ccc3cn2)s1 [Compound 59, 5-Methyl-N-(6-(1-methyl-1H-imidazol-5-yl)isoquinolin-3-yl)-1,3,4-thiadiazole-2-carboxamide] | 1420 | > 10000 | 0 | 1420 |  | 4 | 1890 | 3320 |  |  |  |  |  | 
10 | Cc1ncc(-c2ccc3cnc(NC(=O)c4cnn(C)c4)cc3c2)n1C [Compound 60, N-(6-(1,2-Dimethyl-1H-imidazol-5-yl)isoquinolin-3-yl)-1-methyl-1H-pyrazole-4-carboxamide] | 4010 | 1580 |  | 770 |  | 4 | 121 | 405 |  |  |  |  |  | 
11 | Cc1ncc(-c2ccc3cnc(NC(=O)c4cnn(C(C)C)c4)cc3c2)n1C [Compound 61, N-(6-(1,2-Dimethyl-1H-imidazol-5-yl)isoquinolin-3-yl)-1-isopropyl-1H-pyrazole-4-carboxamide] | 6790 | 566 |  | 318 |  | 5 | 63 | 111 |  |  |  |  |  | 
12 | Cc1ncc(-c2ccc3cnc(NC(=O)c4cnn(C5CCN(C)CC5)c4)cc3c2)o1 [Compound 63, N-(6-(2-Methyloxazol-5-yl)isoquinolin-3-yl)-1-(1-methylpiperidin-4-yl)-1H-pyrazole-4-carboxamide] | 611 | 298 |  | 113 |  | 2 | 34 | 58 |  |  |  |  |  | 
13 | Cc1nnc(-c2ccc3cnc(NC(=O)c4cnn(C5CCN(C)CC5)c4)cc3c2)s1 [Compound 65, N-(6-(5-Methyl-1,3,4-thiadiazol-2-yl)isoquinolin-3-yl)-1-(1-methylpiperidin-4-yl)-1H-pyrazole-4-carboxamide] | 628 | 361 |  | 219 |  | 6 | 30 | 48 |  |  |  |  |  | 
14 | Cc1nnc(-c2ccc3cnc(NC(=O)c4cnn(C5CCN(C(C)C)CC5)c4)cc3c2)s1 [Compound 66, 1-(1-Isopropylpiperidin-4-yl)-N-(6-(5-methyl-1,3,4-thiadiazol-2-yl)isoquinolin-3-yl)-1H-pyrazole-4-carboxamide] | 390 | 893 |  | 169 |  | 4 | 34 | 46 |  |  |  |  |  | 
15 | Cc1nnc(-c2ccc3cnc(NC(=O)c4cn(C5CCN(C)CC5)nn4)cc3c2)s1 [Compound 67, N-(6-(5-Methyl-1,3,4-thiadiazol-2-yl)isoquinolin-3-yl)-1-(1-methylpiperidin-4-yl)-1H-1,2,3-triazole-4-carboxamide] | 2340 | > 10000 | 8.3 | 4360 |  | 31 | 463 | 899 |  |  |  |  |  | 
16 | Cc1nnc(-c2ccc3cnc(NC(=O)c4coc(C5CCNCC5)n4)cc3c2)s1 [Compound 68, N-(6-(5-Methyl-1,3,4-thiadiazol-2-yl)isoquinolin-3-yl)-2-(piperidin-4-yl) oxazole-4-carboxamide] | 666 | 2640 |  | 2580 |  | 74 | 122 | 414 |  |  |  |  |  | 
17 | Cc1nnc(-c2ccc3cnc(NC(=O)c4coc(C5CCN(C)CC5)n4)cc3c2)s1 [Compound 69, N-(6-(5-Methyl-1,3,4-thiadiazol-2-yl)isoquinolin-3-yl)-2-(1-methylpiperidin-4-yl)oxazole-4-carboxamide] | 6770 | > 10000 | 2.3 | > 10000 | 43.9 | 527 | 2150 | 1290 |  |  |  |  |  | 
18 | CC(C)n1cc(C(=O)Nc2cc3cc(-c4cncn4C(C)C)ccc3cn2)cn1 [Compound 70, 1-Isopropyl-N-(6-(1-isopropyl-1H-imidazol-5-yl)isoquinolin-3-yl)-1H-pyrazole-4-carboxamide] | 7080 | 1600 |  | 249 |  | 9 | 115 | 132 |  |  |  |  |  | 
19 | COc1ccc2c(c1)[nH]c1c(C)nccc12 [Harmine, reference compound] |  |  |  |  |  |  |  |  | > 10000 |  |  |  |  | 
20 | CCN1/C(=C/C(C)=O)Sc2ccc(O)cc21 [Indy, reference compound] |  |  |  |  |  |  |  |  |  | > 10000 |  |  |  | 
21 | N-(6-(1-(Methyl-d3)-1H-pyrazol-4-yl)isoquinolin-3-yl)-2-(1-methylpiperidin-4-yl)oxazole-4-carboxamide [Compound 17] | 2930 |  |  |  |  | 16 |  |  |  |  | 6200 | 173 | 111 | 128
22 | N-(6-(1-Methyl-1H-pyrazol-4-yl)isoquinolin-3-yl)-2-(4-methylpiperazin-1-yl)oxazole-5-carboxamide [Compound 15] | 9520 |  |  |  |  | 8 |  |  |  |  | 754 | 279 | 103 | 146

Reference: patent US10744128B2, “6-(5-membered heteroaryl)isoquinolin-3-yl-(5-membered heteroaryl) carboxamides and preparation and use thereof” (Samumed, LLC, priority 2017, dated 2020)
